This experiment addresses Dihydroorotate dehydrogenase (quinone), mitochondrial (Homo sapiens, UniProt Q02127). As to the kind of experiment: Spectrophotometric Assay. The text has this:
Spectrophotometric assay using crude human, recombinant DHODHase.
Sequence of Dihydroorotate dehydrogenase (quinone), mitochondrial (Q02127 whole entry): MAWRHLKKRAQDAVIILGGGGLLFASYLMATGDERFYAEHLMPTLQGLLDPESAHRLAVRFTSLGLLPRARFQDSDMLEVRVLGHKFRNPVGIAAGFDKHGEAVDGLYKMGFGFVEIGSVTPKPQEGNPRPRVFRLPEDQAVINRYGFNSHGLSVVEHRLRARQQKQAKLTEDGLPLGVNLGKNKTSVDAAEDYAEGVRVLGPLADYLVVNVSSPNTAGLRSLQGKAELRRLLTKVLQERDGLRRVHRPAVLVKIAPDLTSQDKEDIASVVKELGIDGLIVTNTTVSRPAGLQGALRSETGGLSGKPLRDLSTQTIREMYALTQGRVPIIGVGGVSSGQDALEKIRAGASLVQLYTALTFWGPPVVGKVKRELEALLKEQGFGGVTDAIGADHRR
By IC50 is commonly meant the concentration at which inhibition is half-maximal. High values mean lower potency, low ones higher potency. With `CC(C)(C)C(=O)C(C#N)C(=O)Nc1ccc(C(F)(F)F)cc1` (stereo not drawn) [Alpha-cyano-beta-hydroxy enamide, 4], 16.2 µM corresponded to half-maximal inhibition (IC50). In other words, the double-digit micromolar range. Under `N#C/C(C(=O)Nc1ccc(C(F)(F)F)cc1)=C1/CCOC1` [Tetrahydrofuranyl derivative, 7 (E)] stands above 50 µM. Consider `N#C/C(C(=O)Nc1ccc(C(F)(F)F)cc1)=C1\CCCO1` [Tetrahydrofuranyl derivative, 7 (Z)], for which the IC50 was above 50 µM.

In turn, `CC(C)(C)CCC(=O)C(C#N)C(=O)Nc1ccc(C(F)(F)F)cc1` (stereo not drawn) [Alpha-cyano-beta-hydroxy enamide, 5] returned an IC50 of 0.13 µM. `CC(=O)C(C#N)C(=O)Nc1ccc(C#N)cc1` (stereo not drawn) [Alpha-cyano-beta-hydroxy enamide, 3] gave an IC50 of 1.3 µM. This IC50 is about 10-fold higher than that of the compound before. As for `N#C/C(C(=O)Nc1ccc(C(F)(F)F)cc1)=C1\CCCCO1` [Tetrahydropyranyl derivative, 8 (Z)], the IC50 was above 50 µM. Turning to `N#C/C(C(=O)Nc1ccc(C(F)(F)F)cc1)=C1/CCCCO1` [Tetrahydropyranyl derivative, 8 (E)], the half-inhibitory concentration (IC50) was above 50 µM. As for `N#Cc1ccc(NC(=O)C(C#N)C(=O)C2CC2)cc1` (stereo not drawn) [Alpha-cyano-beta-hydroxy enamide, 6], the figure is 0.6 µM. Under `CC(=O)C(C#N)C(=O)Nc1ccccc1` (stereo not drawn) [Alpha-cyano-beta-hydroxy enamide, 2] stands 15.2 µM.
